Assay results published in ChEMBL document CHEMBL5370618, “Hypoxia-Directed and Self-Immolative Theranostic Agent: Imaging and Treatment of Cancer and Bacterial Infections” (J Med Chem, 2023).
Calls of active or inactive are those of the source. No cut-off for these calls is given here.

Tests used:
[1] = test system: Escherichia coli; experiment: Antibacterial activity against Escherichia coli assessed as reduction in bacterial cell viability at 250 to 500 uM incubated for 24 hrs by CFU assay; type: functional, organism-based; conditions: dose 250-500 µM
[2] = Prodrug conversion in Bacillus subtilis assessed as nitroreductase mediated drug degradation by measuring increase in fluorescence intensity at 10 uM by fluorescence analysis; type: ADME
[3] = test system: Bacillus subtilis; experiment: Antibacterial activity against Bacillus subtilis assessed as reduction in bacterial cell viability at 250 to 500 uM incubated for 24 hrs by CFU assay; type: functional, organism-based; conditions: dose 250-500 µM
[4] = Prodrug conversion in PBS at pH 7.4 assessed as Escherichia coli nitroreductase mediated drug degradation by measuring increase in maximum absorption at 522nm at 5 uM in presence of NADH as cofactor by UV-Vis spectroscopic analysis; type: ADME; conditions: isolated protein, pH 7.4, 5 µM
[5] = Prodrug conversion in Escherichia coli assessed as nitroreductase mediated drug degradation by measuring increase in fluorescence intensity at 10 uM by fluorescence analysis relative to control; type: ADME
[6] = Prodrug conversion in BALB/c mouse xenografted with human hypoxic A549 cells assessed as rhodamine release by measuring increase in fluorescence intensity in tumor at 2.5 mg/kg,iv and measured after 29 hrs by fluorescence imaging analysis; type: ADME, organism-based; conditions: in vivo
[7] = Biodistribution in tumor of BALB/c mouse xenografted with human hypoxic A549 cells assessed as drug uptake at 2.5 mg/kg,iv and measured after 29 hrs by fluorescence imaging analysis; type: ADME, organism-based, Neoplasm; conditions: in vivo
[8] = Biodistribution in kidney of BALB/c mouse xenografted with human hypoxic A549 cells assessed as drug uptake at 2.5 mg/kg,iv and measured after 29 hrs by fluorescence imaging analysis; type: ADME, organism-based; conditions: in vivo
[9] = Biodistribution in heart of BALB/c mouse xenografted with human hypoxic A549 cells assessed as drug uptake at 2.5 mg/kg,iv and measured after 29 hrs by fluorescence imaging analysis; type: ADME, organism-based; conditions: in vivo
[10] = Biodistribution in stomach of BALB/c mouse xenografted with human hypoxic A549 cells assessed as drug uptake at 2.5 mg/kg,iv and measured after 29 hrs by fluorescence imaging analysis; type: ADME, organism-based; conditions: in vivo
[11] = Prodrug conversion in human serum assessed as tyrosinase mediated drug degradation by measuring fluorescence production at 10 uM incubated for 30 mins by fluorescence spectroscopic analysis; type: ADME, cell-free; conditions: 0.5 h
[12] = Prodrug conversion in Bacillus subtilis assessed as nitroreductase mediated drug degradation by measuring increase in fluorescence intensity at 10 uM in presence of dicoumarol by fluorescence analysis; type: ADME
[13] = Prodrug conversion in Escherichia coli assessed as nitroreductase mediated drug degradation by measuring fold increase in fluorescence intensity at 10 uM by fluorescence analysis relative to control; type: ADME
[14] = Prodrug conversion in PBS at 7.4 assessed as Escherichia coli nitroreductase mediated drug degradation by measuring norfloxacin metabolite formation at 10 uM incubated for 30 mins by HRMS analysis; type: ADME; conditions: isolated protein, pH 7.4, 0.5 h
[15] = Biodistribution in tumor of BALB/c mouse xenografted with human hypoxic A549 cells assessed as fold increase in drug uptake at 2.5 mg/kg,iv and measured after 29 hrs by fluorescence imaging analysis relative to control; type: ADME, organism-based, Neoplasm; conditions: in vivo
[16] = Prodrug conversion in human serum assessed as HNO mediated drug degradation by measuring fluorescence production at 10 uM incubated for 30 mins by fluorescence spectroscopic analysis; type: ADME, cell-free; conditions: 0.5 h
[17] = Prodrug conversion in human serum assessed as NO mediated drug degradation by measuring fluorescence production at 10 uM incubated for 30 mins by fluorescence spectroscopic analysis; type: ADME, cell-free; conditions: 0.5 h
[18] = Biodistribution in liver of BALB/c mouse xenografted with human hypoxic A549 cells assessed as drug uptake at 2.5 mg/kg,iv and measured after 29 hrs by fluorescence imaging analysis; type: ADME, organism-based; conditions: in vivo
[19] = Prodrug conversion in human serum assessed as GSH mediated drug degradation by measuring fluorescence production at 10 uM incubated for 30 mins by fluorescence spectroscopic analysis; type: ADME, cell-free; conditions: 0.5 h
[20] = Biodistribution in spleen of BALB/c mouse xenografted with human hypoxic A549 cells assessed as drug uptake at 2.5 mg/kg,iv and measured after 29 hrs by fluorescence imaging analysis; type: ADME, organism-based; conditions: in vivo
[21] = Prodrug conversion in human serum assessed as Cu2+ ion mediated drug degradation by measuring fluorescence production at 10 uM incubated for 30 mins by fluorescence spectroscopic analysis; type: ADME, cell-free; conditions: 0.5 h
[22] = Prodrug conversion in human serum assessed as trypsin mediated drug degradation by measuring fluorescence production at 10 uM incubated for 30 mins by fluorescence spectroscopic analysis; type: ADME, cell-free; conditions: 0.5 h
[23] = Prodrug conversion in PBS at 7.4 assessed as Escherichia coli nitroreductase mediated drug degradation by measuring increase in fluorescence emission at 545nm at 10 uM in presence of NADH as cofactor by fluorescence spectroscopic analysis; type: ADME; conditions: isolated protein, pH 7.4, 10 µM
[24] = Prodrug conversion in pH 4 to 8 buffer assessed as Escherichia coli nitroreductase mediated drug degradation by measuring fluorescence intensity at 10 uM incubated for 30 mins by fluorescence spectroscopic analysis; type: ADME; conditions: isolated protein, pH 4, 0.5 h
[25] = Prodrug conversion in human serum assessed as Zn2+ ion mediated drug degradation by measuring fluorescence production at 10 uM incubated for 30 mins by fluorescence spectroscopic analysis; type: ADME, cell-free; conditions: 0.5 h
[26] = Prodrug conversion in human serum assessed as […] mediated drug degradation by measuring fluorescence production at 10 uM incubated for 30 mins by fluorescence spectroscopic analysis; type: ADME, cell-free; conditions: 0.5 h
[27] = Prodrug conversion in human serum assessed as hydroxyl radical mediated drug degradation by measuring fluorescence production at 10 uM incubated for 30 mins by fluorescence spectroscopic analysis; type: ADME, cell-free; conditions: 0.5 h
[28] = Prodrug conversion in human serum assessed as Fe2+ ion mediated drug degradation by measuring fluorescence production at 10 uM incubated for 30 mins by fluorescence spectroscopic analysis; type: ADME, cell-free; conditions: 0.5 h
[29] = Prodrug conversion in human serum assessed as ascorbic acid mediated drug degradation by measuring fluorescence production at 10 uM incubated for 30 mins by fluorescence spectroscopic analysis; type: ADME, cell-free; conditions: 0.5 h
[30] = Prodrug conversion in Escherichia coli assessed as nitroreductase mediated drug degradation by measuring increase in fluorescence intensity at 10 uM in presence of dicoumarol by fluorescence analysis; type: ADME
[31] = Prodrug conversion in BALB/c mouse xenografted with human hypoxic A549 cells assessed as rhodamine release by measuring fold increase in fluorescence intensity in tumor at 2.5 mg/kg,iv and measured after 17 hrs by fluorescence imaging analysis relative to control; type: ADME, organism-based; conditions: in vivo
[32] = Prodrug conversion in human serum assessed as NO3- ion mediated drug degradation by measuring fluorescence production at 10 uM incubated for 30 mins by fluorescence spectroscopic analysis; type: ADME, cell-free; conditions: 0.5 h
[33] = Prodrug conversion in human serum assessed as serine mediated drug degradation by measuring fluorescence production at 10 uM incubated for 30 mins by fluorescence spectroscopic analysis; type: ADME, cell-free; conditions: 0.5 h
[34] = Prodrug conversion in PBS at pH 7.4 assessed as Escherichia coli nitroreductase mediated drug degradation by measuring change in fluorescence intensity at 545nm at 10 uM incubated for 20 mins by fluorescence spectroscopic analysis; type: ADME; conditions: isolated protein, pH 7.4, 20 min
[35] = Prodrug conversion in human serum assessed as Fe3+ ion mediated drug degradation by measuring fluorescence production at 10 uM incubated for 30 mins by fluorescence spectroscopic analysis; type: ADME, cell-free; conditions: 0.5 h
[36] = Prodrug conversion in human serum assessed as H2O2 mediated drug degradation by measuring fluorescence production at 10 uM incubated for 30 mins by fluorescence spectroscopic analysis; type: ADME, cell-free; conditions: 0.5 h
[37] = Prodrug conversion in human serum assessed as cysteine mediated drug degradation by measuring fluorescence production at 10 uM incubated for 30 mins by fluorescence spectroscopic analysis; type: ADME, cell-free; conditions: 0.5 h
[38] = Biodistribution in intestine of BALB/c mouse xenografted with human hypoxic A549 cells assessed as drug uptake at 2.5 mg/kg,iv and measured after 29 hrs by fluorescence imaging analysis; type: ADME, organism-based; conditions: in vivo
[39] = Prodrug conversion in human serum assessed as FADH2 mediated drug degradation by measuring fluorescence production at 10 uM incubated for 30 mins by fluorescence spectroscopic analysis; type: ADME, cell-free; conditions: 0.5 h
[40] = Prodrug conversion in human serum assessed as glutathione mediated drug degradation by measuring fluorescence production at 10 uM incubated for 30 mins by fluorescence spectroscopic analysis; type: ADME, cell-free; conditions: 0.5 h
[41] = Prodrug conversion in human serum assessed as glutamic acid mediated drug degradation by measuring fluorescence production at 10 uM incubated for 30 mins by fluorescence spectroscopic analysis; type: ADME, cell-free; conditions: 0.5 h
[42] = Prodrug conversion in PBS at 7.4 assessed as Escherichia coli nitroreductase mediated drug degradation by measuring rhodamine metabolite formation at 10 uM incubated for 30 mins by HRMS analysis; type: ADME; conditions: isolated protein, pH 7.4, 0.5 h
[43] = Prodrug conversion in human serum assessed as pepsin mediated drug degradation by measuring fluorescence production at 10 uM incubated for 30 mins by fluorescence spectroscopic analysis; type: ADME, cell-free; conditions: 0.5 h
[44] = Prodrug conversion in human serum assessed as arginine mediated drug degradation by measuring fluorescence production at 10 uM incubated for 30 mins by fluorescence spectroscopic analysis; type: ADME, cell-free; conditions: 0.5 h
[45] = Prodrug conversion in BALB/c mouse xenografted with human hypoxic A549 cells assessed as rhodamine release by measuring increase in fluorescence intensity in tumor at 2.5 mg/kg,iv and measured after 2.5 hrs by fluorescence imaging analysis; type: ADME, organism-based; conditions: in vivo
[46] = Prodrug conversion in tumor of BALB/c mouse xenografted with human hypoxic A549 cells assessed as fold increase in fluorescence intensity at 2.5 mg/kg,iv and measured after 29 hrs by fluorescence imaging analysis relative to control; type: ADME, organism-based, Neoplasm; conditions: in vivo
[47] = Prodrug conversion in BALB/c mouse xenografted with human hypoxic A549 cells assessed as rhodamine release by measuring increase in fluorescence intensity in body at 2.5 mg/kg,iv and measured upto 29 hrs by fluorescence imaging analysis; type: ADME, organism-based; conditions: in vivo

## CCN(CC)c1ccc2c(c1)Oc1cc(OC(=O)OCc3cc(C)cc(COC(=O)c4cn(CC)c5cc(N6CCNCC6)c(F)cc5c4=O)c3OCc3ccccc3)ccc1C21OC(=O)c2ccccc21 (centres undefined)
[1]
  Activity: Active
[2]
  Drug metabolism: Metabolite_Notdetected
[3]
  Activity: Dose-Dependent Effect
[4]
  Drug metabolism: Metabolite_Notdetected
[5]
  Drug metabolism: Metabolite_Notdetected
[6]
  Drug metabolism: Metabolite_Notdetected
[7]
  Drug uptake: Not Active

## CCN(CC)c1ccc2c(c1)Oc1cc(OC(=O)OCc3cc(C)cc(COC(=O)c4cn(CC)c5cc(N6CCNCC6)c(F)cc5c4=O)c3OCc3ccc([N+](=O)[O-])cc3)ccc1C21OC(=O)c2ccccc21 (centres undefined)
[8]
  Drug uptake: Not Active
[1]
  Activity: Active
[9]
  Drug uptake: Not Active
[2]
  Drug metabolism: Metabolite_Detected
[10]
  Drug uptake: Active
[11]
  Drug metabolism: Metabolite_Notdetected
[12]
  Drug metabolism: Metabolite_Notdetected
[13]
  fold change (FC): 3.5
[14]
  Drug metabolism: Metabolite_Detected
[15]
  fold change (FC): 4
[3]
  Activity: Dose-Dependent Effect
[16]
  Drug metabolism: Metabolite_Notdetected
[17]
  Drug metabolism: Metabolite_Notdetected
[18]
  Drug uptake: Not Active
[4]
  Drug metabolism: Metabolite_Detected
[19]
  Drug metabolism: Metabolite_Notdetected
[20]
  Drug uptake: Not Active
[21]
  Drug metabolism: Metabolite_Notdetected
[22]
  Drug metabolism: Metabolite_Notdetected
[23]
  Drug metabolism: Metabolite_Detected
[24]
  Drug metabolism: Metabolite_Detected
[25]
  Drug metabolism: Metabolite_Notdetected
[26]
  Drug metabolism: Metabolite_Notdetected
[27]
  Drug metabolism: Metabolite_Notdetected
[28]
  Drug metabolism: Metabolite_Notdetected
[29]
  Drug metabolism: Metabolite_Notdetected
[30]
  Drug metabolism: Metabolite_Notdetected
[31]
  fold change (FC): 4.1
[32]
  Drug metabolism: Metabolite_Notdetected
[33]
  Drug metabolism: Metabolite_Notdetected
[34]
  Drug metabolism: Metabolite_Detected
[35]
  Drug metabolism: Metabolite_Notdetected
[36]
  Drug metabolism: Metabolite_Notdetected
[37]
  Drug metabolism: Metabolite_Notdetected
[38]
  Drug uptake: Active
[39]
  Drug metabolism: Metabolite_Notdetected
[6]
  Drug metabolism: Metabolite_Detected
[40]
  Drug metabolism: Metabolite_Notdetected
[41]
  Drug metabolism: Metabolite_Notdetected
[42]
  Drug metabolism: Metabolite_Detected
[43]
  Drug metabolism: Metabolite_Notdetected
[44]
  Drug metabolism: Metabolite_Notdetected
[45]
  Drug metabolism: Metabolite_Detected
[7]
  Drug uptake: Active
[46]
  fold change (FC): 4.5
[47]
  Drug metabolism: Metabolite_Detected

## CCn1cc(C(=O)O)c(=O)c2cc(F)c(N3CCNCC3)cc21
[1]
  Activity: Active
